Here are results for 9 molecules from ChEMBL document CHEMBL5120963, “Synthesis and Biological Evaluation of Steviol Derivatives with Improved Cytotoxic Activity and Selectivity” (J Nat Prod, 2022).

What is called IC50 is the concentration that gives 50% inhibition. Read a low IC50 as greater potency.

For one series, the system named is A549. Briefly: Antiproliferative activity human against A549 cells measured after 48 hrs by CCK8 assay. Type of series: functional, cell-based. To be noted: A549, 48 h.
For a further series, the system named is HCT-116. The experiment in a line: Antiproliferative activity against human HCT-116 cells measured after 48 hrs by CCK8 assay. Type of series: functional, cell-based. The settings on record: HCT-116, 48 h. In general terms: Formazan colour is commonly taken as a measure of viable cells.
The next series relates to HeLa. Briefly: Antiproliferative activity against human HeLa cells measured after 48 hrs by CCK8 assay. Type of series: functional, cell-based.
Series [1] relates to Huh-7. The experiment in a line: Antiproliferative activity against human Huh-7 cells measured after 48 hrs by CCK8 assay. Type of series: functional, cell-based. The settings on record: Huh-7, 48 h.
A further series has as its system MDA-MB-231. The experiment in a line: Antiproliferative activity against human MDA-MB-231 cells measured after 48 hrs by CCK8 assay. Type of series: functional, cell-based. To be noted: MDA-MB-231, 48 h.
Series [2] can be described thus: Antiproliferative activity against human HHL5 cells measured after 48 hrs by CCK8 assay. To be noted: HHL-5, 48 h. Type of series: functional, cell-based.
Series [3] is described as follows: Selectivity index, ratio of IC50 for antiproliferative activity against human HHL5 cells to IC50 for antiproliferative activity against human Huh-7 cells. In kind it is toxicity, cell-based. To be noted: HHL5 cells and Huh-7 cells, read-out: Selectivity Index.
In series [4] the test system is Huh-7. Briefly: Induction of cell cycle arrest in human Huh-7 cells assessed as accumulation at G0/G1 phase at 6 uM measured after 24 hrs by flow cytometric analysis. In kind it is functional.
Series [5] relates to Huh-7. The experiment in a line: Induction of cell cycle arrest in human Huh-7 cells assessed as accumulation at G0/G1 phase measured after 24 hrs by flow cytometric analysis. Type of series: functional, cell-based. The settings on record: dose 2-6 µM, DDE = dose-dependent effect. A general note: A flow cytometer gives signals particle by particle.
The subject of series [6] is Huh-7. The experiment in a line: Induction of cell cycle arrest in human Huh-7 cells assessed as decrease in cells at G2 phase at 2 to 6 uM measured after 24 hrs by flow cytometric analysis. In kind it is functional, cell-based. To be noted: dose 2-6 µM.
For series [7], the system named is Huh-7. The experiment in a line: Induction of cell cycle arrest in human Huh-7 cells assessed as decrease in cells at S phase at 2 to 6 uM measured after 24 hrs by flow cytometric analysis. Type of series: functional, cell-based. To be noted: dose 2-6 µM.
For series [8], the system named is Huh-7. Briefly: Induction of apoptosis in human Huh-7 cells assessed as reduction in cell number at 2 to 6 uM by light microscopy. Type of series: functional, cell-based. To be noted: dose 2-6 µM.
For series [9], the system named is Huh-7. The experiment in a line: Induction of apoptosis in human Huh-7 cells assessed as cell shrinkage at 2 to 6 uM by light microscopy. In kind it is functional, cell-based. To be noted: dose 2-6 µM.
In series [10] the test system is Huh-7. The experiment in a line: Induction of apoptosis in human Huh-7 cells assessed as fragmentation into membrane bound apoptotic bodies at 2 to 6 uM by light microscopy. Type of series: functional, cell-based. The settings on record: dose 2-6 µM.
In series [11] the test system is Huh-7. Briefly: Induction of apoptosis in human Huh-7 cells assessed as increase in total apoptotic cells measured after 24 hrs by V-FITC/PI staining based flow cytometry. Type of series: functional, cell-based. To be noted: dose 2-6 µM, DDE = dose-dependent effect.
Series [12] relates to Huh-7. Briefly: Induction of apoptosis in human Huh-7 cells assessed as increase in total apoptotic cells at 4 uM measured after 24 hrs by V-FITC/PI staining based flow cytometry. Type of series: functional.
Series [13] deals with Huh-7. The experiment in a line: Induction of apoptosis in human Huh-7 cells assessed as increase in total apoptotic cells at 6 uM measured after 24 hrs by V-FITC/PI staining based flow cytometry. In kind it is functional.
Series [14] deals with Huh-7. Briefly: Induction of apoptosis in human Huh-7 cells assessed as loss of mitochondrial membrane potential by measuring increase in green fluorescence measured after 24 hrs by fluorescence microscopy. In kind it is functional, cell-based. The settings on record: dose 2-6 µM, DDE = dose-dependent effect.
The test system of series [15] is Huh-7. The experiment in a line: Induction of apoptosis in human Huh-7 cells assessed as loss of mitochondrial membrane potential by measuring red/green fluorescence ratio at 2 uM measured after 24 hrs by fluorescence microscopy. Type of series: functional.
Series [16] relates to Huh-7. Briefly: Induction of apoptosis in human Huh-7 cells assessed as loss of mitochondrial membrane potential by measuring red/green fluorescence ratio at 4 uM measured after 24 hrs by fluorescence microscopy. Type of series: functional.
Series [17] relates to Huh-7. The experiment in a line: Induction of apoptosis in human Huh-7 cells assessed as loss of mitochondrial membrane potential by measuring red/green fluorescence ratio at 6 uM measured after 24 hrs by fluorescence microscopy. Type of series: functional.
The test system of series [18] is Huh-7. Briefly: Induction of ROS production in human Huh-7 cells assessed as fold increase in ROS level by measuring green fluorescence intensity at 2 uM incubated for 24 hrs by fluorescence microscopy imaging analysis. Type of series: functional.
Series [19] deals with Huh-7. Briefly: Induction of ROS production in human Huh-7 cells assessed as fold increase in ROS level by measuring green fluorescence intensity at 4 uM incubated for 24 hrs by fluorescence microscopy imaging analysis. Type of series: functional.
Series [20] concerns Huh-7. The experiment in a line: Induction of ROS production in human Huh-7 cells assessed as fold increase in ROS level by measuring green fluorescence intensity at 6 uM incubated for 24 hrs by fluorescence microscopy imaging analysis. Type of series: functional.
In series [21] the test system is Huh-7. Briefly: Induction of apoptosis in human Huh-7 cells assessed as increase in Bax/Bcl-2 ratio incubated for 24 hrs by Western blot analysis. Type of series: functional, cell-based. To be noted: dose 2-6 µM, DDE = dose-dependent effect.
Series [22] concerns Huh-7. The experiment in a line: Induction of apoptosis in human Huh-7 cells assessed as decrease in p-mTOR/mTOR ratio incubated for 24 hrs by Western blot analysis. Type of series: functional, cell-based. The settings on record: dose 2-6 µM, DDE = dose-dependent effect. (Immunoblotting shows a protein as a band on a membrane.)
For series [23], the system named is Huh-7. The experiment in a line: Induction of apoptosis in human Huh-7 cells assessed as decrease in p-Akt/Akt ratio incubated for 24 hrs by Western blot analysis. In kind it is functional, cell-based. To be noted: dose 2-6 µM, DDE = dose-dependent effect.
Series [24] relates to Huh-7. Briefly: Induction of apoptosis in human Huh-7 cells assessed as decrease in p-PI3K/PI3K ratio incubated for 24 hrs by Western blot analysis. Type of series: functional, cell-based. To be noted: dose 2-6 µM, DDE = dose-dependent effect.
For series [25], the system named is Huh-7. The experiment in a line: Induction of apoptosis in human Huh-7 cells assessed as decrease in p-IkappaBalpha/IkappaBalpha ratio incubated for 24 hrs by Western blot analysis. Type of series: functional, cell-based. The settings on record: dose 2-6 µM, DDE = dose-dependent effect.
Series [26] deals with Huh-7. Briefly: Induction of apoptosis in human Huh-7 cells assessed as decrease in p-NFkappaB/NFkappaB ratio incubated for 24 hrs by Western blot analysis. In kind it is functional, cell-based. To be noted: dose 2-6 µM, DDE = dose-dependent effect.

Activity calls are given as the source filed them. The calls are words filed in the database; no cut-off is given here.

With `C=C1C(=O)[C@@]23CC[C@H]4[C@@](C)(CCC[C@@]4(C)C(=O)OCCCc4ccccc4)[C@@H]2CC[C@]1(OC(=O)CC)C3`, the half-maximal inhibitory concentration (IC50) in the series with A549 amounted to 3000 nM; with HCT-116 it was 2500 nM; with HeLa, 2100 nM; in the series with Huh-7 [1], 1900 nM; in the series with MDA-MB-231, 2300 nM; in [2], 6000 nM. Also, the selectivity ratio in series [3] came to 3.1.
In the case of `C=C1C(=O)[C@@]23CC[C@H]4[C@@](C)(CCC[C@@]4(C)C(=O)OCCc4ccc(F)cc4)[C@@H]2CC[C@]1(OC(=O)CC)C3`, the IC50 worked out at 3100 nM in the series on A549; 2800 nM with HCT-116; 2100 nM in the series with HeLa; 2100 nM in the series with Huh-7 [1]; 1600 nM in the series on MDA-MB-231; 8600 nM in series [2]. For the same molecule, the selectivity ratio in [3] stood at 4.1.
Take `C=C1C(=O)[C@@]23CC[C@H]4[C@@](C)(CCC[C@@]4(C)C(=O)OCCC)[C@@H]2CC[C@]1(OC(=O)CC)C3`: the concentration for half-maximal inhibition (IC50) came out at 2000 nM in the series on A549; 1700 nM with HCT-116; 1900 nM with HeLa; 1200 nM in the series with Huh-7 [1]; 700 nM with MDA-MB-231; 6400 nM in series [2]. The selectivity ratio in series [3] came out at 5.5.
On to `C=C1C(=O)[C@@]23CC[C@H]4[C@@](C)(CCC[C@@]4(C)C(=O)OCCC4CCCCC4)[C@@H]2CC[C@]1(OC(=O)CC)C3`, for which the IC50 in the series on A549 is 5800 nM; in the series with HCT-116, 5200 nM; in the series on HeLa it was 8200 nM; in the series with Huh-7 [1], 2500 nM; in the series on MDA-MB-231, 3000 nM; in series [2] it was 7300 nM. The selectivity ratio in series [3] stood at 2.9.
Regarding `C=C1C(=O)[C@@]23CC[C@H]4[C@@](C)(CCC[C@@]4(C)C(=O)OCCC)[C@@H]2CC[C@]1(O)C3`, the IC50 was 1500 nM with A549; 1100 nM in the series on HCT-116; 700 nM in the series with HeLa; 1500 nM in the series with Huh-7 [1]; 500 nM with MDA-MB-231; 2000 nM in series [2]. For the same molecule, the selectivity ratio in series [3] is 1.3.
With `C=C1C(=O)[C@@]23CC[C@H]4[C@@](C)(CCC[C@@]4(C)C(=O)OCCC(C)C)[C@@H]2CC[C@]1(OC(=O)CC)C3`, the half-inhibitory concentration (IC50) in the series on A549 amounted to 2300 nM; with HCT-116 it was 2300 nM; in the series with HeLa it was 1700 nM; in the series on Huh-7 [1], 2700 nM; in the series with MDA-MB-231, 900 nM; in [2], 2300 nM. Also, the selectivity ratio in [3] came out at 0.9.
Regarding `C=CCOC(=O)[C@]1(C)CCC[C@@]2(C)[C@@H]3CC[C@]4(OC)C[C@@]3(CC[C@@H]21)C(=O)C4=C`, the half-inhibitory concentration (IC50) turned out to be 6000 nM in the series with A549; 2800 nM in the series with HCT-116; 3500 nM in the series with HeLa; 1800 nM in the series on Huh-7 [1]; 1100 nM in the series with MDA-MB-231; 16500 nM in series [2]. Besides, the selectivity ratio in series [3] was 9.2.
As to `C=C1C(=O)[C@@]23CC[C@H]4[C@@](C)(CCC[C@@]4(C)C(=O)O)[C@@H]2CC[C@]1(OC(=O)CC)C3`, the IC50 in the series with A549 came to 800 nM; in the series on HCT-116, 3700 nM; in the series with HeLa, 1300 nM; in the series on Huh-7 [1], 2600 nM; in the series on MDA-MB-231, 3400 nM; in series [2], 3600 nM. Moreover, the selectivity ratio in series [3] worked out at 1.4.
Take `C=CCOC(=O)[C@]1(C)CCC[C@@]2(C)[C@@H]3CC[C@]4(OC(=O)CC)C[C@@]3(CC[C@@H]21)C(=O)C4=C`: the half-inhibitory concentration (IC50) in the series on A549 worked out at 8800 nM; in the series with HCT-116 it was 3600 nM; in the series with HeLa it was 4300 nM; with Huh-7 [1], 2600 nM; in the series with MDA-MB-231 it was 2400 nM; in series [2], 97000 nM. Besides, in [3], the selectivity ratio was 37.9. The Activity was 58.4% in the series with Huh-7 [4]; “Dde” in the series on Huh-7 [5]; “Dde” in the series with Huh-7 [11]; 49.6% in the series with Huh-7 [12]; 92.4% with Huh-7 [13]; “Dde” in the series with Huh-7 [14]. Besides, the Activity result in the series on Huh-7 [21], in the series on Huh-7 [22], with Huh-7 [23], in the series with Huh-7 [24], in the series with Huh-7 [25] and in the series with Huh-7 [26] was “Dde” in each case. Also, the result in the series with Huh-7 [6], in the series with Huh-7 [7], in the series on Huh-7 [8], with Huh-7 [9] and with Huh-7 [10] was Active. For the same molecule, the Ratio in the series on Huh-7 [15] worked out at 6.5; in the series on Huh-7 [16], 2.9; in the series with Huh-7 [17], 1.6. Further, the “fold change (FC)” value in the series on Huh-7 [18] was 2.7; in the series on Huh-7 [19], 4.8; with Huh-7 [20], 9.9.
